Experimental data published in publication PMC9143078, “An Albumin-Binding PSMA Ligand with Higher Tumor Accumulation for PET Imaging of Prostate Cancer” (Pharmaceuticals, 2022).

How the values were obtained:
[1] = In vitro stability in saline; assay type: physicochemical; conditions: 37.0 °C, more than 48 h incubation
Procedure: (§1) The in vitro stability of ^64Cu-PSMA-CM was tested in 5% human serum albumin (HSA) and saline at 37.0 °C.
(§2) ^64Cu-PSMA-CM was incubated in saline or 5% human serum albumin (HSA) at 37 °C and the radiochemical purity was determined by radio-HPLC at different points in time (1 h, 4 h, 12 h, 24 h, and 48 h). For the stability in 5% HSA, 15 μL of mixture was taken out and precipitated by ethanol, filtered, and the supernatant was analyzed.

[2] = In vitro stability in 5% human serum albumin; assay type: in vitro ADME; conditions: 37.0 °C, more than 48 h incubation
Procedure: as §1, §2

[3] = Partition coefficient (octanol/PBS); assay type: physicochemical; conditions: octanol / PBS (0.1 M, pH 7.4)
Procedure: Amounts of 10 μL of ^64Cu-PSMA-CM in saline (0.37 MBq), 990 μL of phosphate-buffered saline (PBS, 0.1 M, pH 7.4), and 1mL of octanol were mixed in a tube. The mixture was vortexed for 3 min and centrifuged (3000 rpm × 5 min). Then, five samples (100 μL) from each phase were removed and the radioactivity was measured. The experiment was repeated three times. The partition coefficient value was calculated as below: P = (average of counts in octanol/average of counts in PBS), the value was expressed as log P ± SD.

[4] = system: PSMA (+) 22Rv1 cells; test: Cell uptake in 22Rv1 cells; assay type: cell-based, human; conditions: 120 min
Procedure: (§3) The 22Rv1 and PC-3 cell lines were plated on 24-well plates (2 × 10^5 cells/well). After incubating for 24 h, the medium was removed and washed with PBS (phosphate buffer saline, 0.01 M). Then, 500 μL medium with 74 KBq of ^64Cu-PSMA-CM was added to the well plates and co-incubated with cells at 37 °C for 10 min, 30 min, 60 min, and 120 min. The medium was then removed and the cells were washed twice with 1 mL of cold PBS. After that, cells were lysed with 1M NaOH, and then the NaOH solution was collected for analysis. For the blocking experiment, cells were co-incubated with ZJ-43 (1 µg/well), a PSMA inhibitor, for 120 min. Five samples of ^64Cu-PSMA-CM were taken out and were thought to be standard. The result was expressed as %IA/10^6 cells. For comparison, the cell uptake experiment of ^64Cu-PSMA-BCH in 22Rv1 cells was performed.

[5] = system: PSMA (−) PC-3 cells; test: Cell uptake in PC-3 cells; assay type: cell-based, human
Procedure: as §3

[6] = target: T1, PSMA (Homo sapiens, UniProt Q04609); test: Binding affinity to PSMA on 22Rv1 cells (dissociation constant); conditions: 2 h at 37 °C, one-site total model
T1 construct: endogenous in cells; host or cells: 22Rv1 cells
Procedure: The dissociation constant of ^64Cu-PSMA-CM was performed on 22Rv1 cells by adding different concentrations of ^64Cu-PSMA-CM (0.185–74 kBq/mL, 400 μL/well, 4 well/group) to the 24-well plate (2 × 10^5 cells/well). After incubation for 2 h at 37 °C, the medium was removed, the cells were washed twice with cold PBS and then lysed by 0.5 mL NaOH. The radioactivity of NaOH solution was measured and the dissociation constant was calculated using the one-site total model in Graph Pad software (Graph Pad prism 5). Similarly, the dissociation constant of ^64Cu-PSMA-CM was determined with the same protocol.

[7] = Pharmacokinetics in blood; assay type: in vivo, mice
Procedure: The pharmacokinetics profile of ^64Cu-PSMA-CM in blood circulation was tested by injecting 3.7 MBq of ^64Cu-PSMA-CM into Balb/c male mice (n = 4).
An amount of 3.7 MBq (250 μL) of ^64Cu-PSMA-CM was intravenously injected into Babl/c male mice (n = 4). Blood was collected from the ophthalmic artery at different time points, then the radioactivity of blood was weighed and measured by a γ-counter. An injection of 2.5 μL was taken out as standard. The results were expressed as the percentage of injected dose per gram (%ID/g).
A two-phase decay Equation (1) in Graph Pad software (Graph Pad prism 5) was used to serve as the two-compartment model which models biological process of the probe by fitting the ID%/g versus to time of ^64Cu-PMA-CM to describe blood pharmacokinetics. Ct = Ae^−αt + Be^−βt(1) where A and B are relevant constants, and α and β are rate constants which were used to calculate as ln(2)/α and ln(2)/β for the half-life of distribution phase and elimination phase, respectively.

[8] = system: mice bearing 22Rv1 tumors; test: Biodistribution in 22Rv1 tumor model mice; assay type: in vivo; conditions: for Biodistribution, Liver / Biodistribution, Spleen / Biodistribution, Blood / Biodistribution, Brain / Biodistribution, Heart / Biodistribution, Kidney / Biodistribution, LI (large intestine) / Biodistribution, Lung / Biodistribution, Muscle / Biodistribution, tumor: 22Rv1 male mice
Procedure: Twelve 22Rv1 tumor model mice were randomly divided into four groups and then ^64Cu-PSMA-CM (200 μL, 0.74 MBq/mouse) was injected via tail vein. […] Organs of interest including blood, heart, liver, spleen, lung, kidney, small intestine, large intestine, muscle, brain, and 22Rv1 tumor were collected. The organs were then weighed and measured for their radioactivity. Five samples of the 1% injection volume were taken out as a standard. The final uptake values of each organ were expressed as the percentage of injected dose per gram (%ID/g).

[9] = system: mice bearing 22Rv1 tumors; test: Micro-PET imaging in mice bearing 22Rv1 xenograft tumors; assay type: in vivo
Procedure: An amount of 200 μL of ^64Cu-PSMA-CM (9.32 MBq) was injected into mice bearing 22Rv1 xenograft tumors via tail vein. For blocking, the mice were co-injected with 50 μg of ZJ-43. Imaging was performed on Super Nova PET/CT (PINGSENG, Shanghai, China). The mice were anaesthetized with 3% (v/v) isoflurane, then fixed on the bed at 4 h, 8 h, 12 h, 24 h, and 48 h p.i. Micro-PET scans were conducted with continuous 1% (v/v) isoflurane for 15 min. The images of ^64Cu-PSMA-CM were obtained at different time points and SUV mean values of regions of interest (ROIs) over the heart, kidney, muscle, liver, and tumor were collected. The ratio of tumor-to-non-target organs was then calculated at different time points. To better assess its […] in vivo, a comparison with ^64Cu-PSMA-BCH (5.55 MBq/mouse) of micro-PET imaging was performed in mice bearing 22Rv1 tumor models at 4 h p.i., 12 h p.i., and 24 h p.i. The mean standardized uptake value (SUVmean) in each organ was calculated according to following Formula (2). SUV = Activity VOI (MBq/mL)/Injected dose (MBq) × Body weight (g)(2)

[10] = blood activity–time profile, in Figure 5
[11] = blood activity–time profile, in Figure 5, in h
[12] = blood, mice, 3.7 MBq i.v., two-phase decay fit

T1 sequence (Q04609 whole entry): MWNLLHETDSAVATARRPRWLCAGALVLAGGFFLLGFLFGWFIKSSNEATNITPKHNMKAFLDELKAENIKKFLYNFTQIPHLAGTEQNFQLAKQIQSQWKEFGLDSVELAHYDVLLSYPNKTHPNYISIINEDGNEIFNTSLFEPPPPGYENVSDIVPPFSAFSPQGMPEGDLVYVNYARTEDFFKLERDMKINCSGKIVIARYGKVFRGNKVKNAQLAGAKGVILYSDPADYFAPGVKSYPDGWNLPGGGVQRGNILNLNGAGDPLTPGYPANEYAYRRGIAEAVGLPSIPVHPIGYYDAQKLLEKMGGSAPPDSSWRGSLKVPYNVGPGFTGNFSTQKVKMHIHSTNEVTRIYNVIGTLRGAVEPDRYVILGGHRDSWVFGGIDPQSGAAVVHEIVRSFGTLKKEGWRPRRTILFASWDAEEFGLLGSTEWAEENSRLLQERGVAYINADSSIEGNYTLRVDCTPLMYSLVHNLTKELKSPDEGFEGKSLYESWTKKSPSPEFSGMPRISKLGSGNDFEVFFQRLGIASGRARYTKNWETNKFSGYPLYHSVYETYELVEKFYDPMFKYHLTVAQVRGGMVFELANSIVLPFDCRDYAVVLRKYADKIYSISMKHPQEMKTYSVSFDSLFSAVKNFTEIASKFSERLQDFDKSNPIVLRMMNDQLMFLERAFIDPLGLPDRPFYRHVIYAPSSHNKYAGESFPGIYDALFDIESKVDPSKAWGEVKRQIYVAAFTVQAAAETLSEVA

O=C([O-])CN1CCN(CC(=O)[O-])CCN(CC(=O)NC(CNC(CC(=O)NC[C@H]2CC[C@H](C(=O)N[C@H](Cc3ccc4ccccc4c3)C(=O)NCCCC[C@H](NC(=O)N[C@@H](CCC(=O)O)C(=O)O)C(=O)O)CC2)C(=O)NCCOCCOCCNC(=O)CCN2C(=O)C=CC2=O)Cc2ccccc2)CC1.[64Cu+2] (stereo partly drawn) [^64Cu-PSMA-CM]
radiochemical purity (RCP) after incubation in saline [1]: over 95%
radiochemical purity (RCP) after incubation in 5% HSA [2]: over 95%
log P [3]: −2.25 ± 0.05
highest uptake value in PSMA (+) 22Rv1 cells [4]: 5.45 ± 0.42 IA%/10^6 cells
uptake in 22Rv1 cells [4]: 5.45 ± 0.42 %IA/10^6 cells
uptake in 22Rv1 cells blocked by ZJ-43 ([4]; co-incubated with ZJ-43 (1 µg/well)): 3.38 ± 0.04 IA%/10^6 cells
uptake in PSMA (−) PC-3 cells ([5]; 120 min): 1.79 ± 0.20 IA%/10^6 cells
blocking of uptake in PC-3 cells by excess of ZJ-43 ([5]; p > 0.05): cannot be blocked
Kd [6]: 4.58 nM
KFast [7, 10]: 4.287
KSlow [7, 10]: 0.1765
Half Life (Fast) [7, 11]: 0.1617
Half Life (Slow) [7, 11]: 3.927
half-life of the distribution phase [7, 12]: 9.6 min
half-life of the elimination phase [7, 12]: 3.93 h
highest uptake in 22Rv1 tumor ([8]; 22Rv1-beared male mice, 24 h p.i.): 14.29 ± 1.44 %ID/g
uptake in kidneys ([8]; 22Rv1-beared male mice, within 1 h): 95.84 ± 3.33 %ID/g
Biodistribution, Liver [8]: 8.50±1.06 ID%/g
Biodistribution, Spleen [8]: 2.65±0.55 ID%/g
Biodistribution, Blood ([8]; 1 h): 16.95 ± 3.05 ID%/g
Biodistribution, Brain ([8]; 1 h): 0.69±0.07 ID%/g
Biodistribution, Heart ([8]; 1 h): 4.49±0.47 ID%/g
Biodistribution, Kidney ([8]; 1 h): 95.84±3.33 ID%/g
Biodistribution, LI (large intestine) ([8]; 1 h): 3.75±0.11 ID%/g
Biodistribution, Liver ([8]; 1 h): 5.34 ± 1.13 ID%/g
Biodistribution, Lung ([8]; 1 h): 9.91±0.43 ID%/g
Biodistribution, Muscle ([8]; 1 h): 1.15±0.09 ID%/g
Biodistribution, Spleen ([8]; 1 h): 8.48±3.35 ID%/g
Biodistribution, tumor ([8]; 1 h): 8.09±1.66 ID%/g
Biodistribution, Blood ([8]; 6 h): 12.33±2.83 ID%/g
Biodistribution, Brain ([8]; 6 h): 0.47±0.05 ID%/g
Biodistribution, Heart ([8]; 6 h): 4.16±0.62 ID%/g
Biodistribution, Kidney ([8]; 6 h): 26.78±0.69 ID%/g
Biodistribution, LI (large intestine) ([8]; 6 h): 2.85±0.06 ID%/g
Biodistribution, Liver ([8]; 6 h): 5.24±0.59 ID%/g
Biodistribution, Lung ([8]; 6 h): 8.47±1.45 ID%/g
Biodistribution, Muscle ([8]; 6 h): 1.22±0.25 ID%/g
Biodistribution, Spleen ([8]; 6 h): 4.63±1.13 ID%/g
Biodistribution, tumor ([8]; 6 h): 8.51±1.99 ID%/g
Biodistribution, Blood ([8]; 12 h): 5.41±0.94 ID%/g
Biodistribution, Brain ([8]; 12 h): 0.44±0.06 ID%/g
Biodistribution, Heart ([8]; 12 h): 1.96±0.35 ID%/g
Biodistribution, Kidney ([8]; 12 h): 14.19±1.40 ID%/g
Biodistribution, LI (large intestine) ([8]; 12 h): 4.32±0.69 ID%/g
Biodistribution, Lung ([8]; 12 h): 6.28±0.72 ID%/g
Biodistribution, Muscle ([8]; 12 h): 1.24±0.77 ID%/g
Biodistribution, tumor ([8]; 12 h): 14.29±1.44 ID%/g
Biodistribution, Blood ([8]; 24 h): 2.83±0.41 ID%/g
Biodistribution, Heart ([8]; 24 h): 0.95±0.21 ID%/g
Biodistribution, Kidney ([8]; 24 h): 8.92±0.41 ID%/g
Biodistribution, LI (large intestine) ([8]; 24 h): 2.81±0.35 ID%/g
Biodistribution, Liver ([8]; 24 h): 6.14±0.23 ID%/g
Biodistribution, Lung ([8]; 24 h): 5.60±0.23 ID%/g
Biodistribution, Spleen ([8]; 24 h): 2.31±0.26 ID%/g
Biodistribution, tumor ([8]; 24 h): 10.57±1.23 ID%/g
SUV mean value in 22Rv1 tumor (highest accumulation) ([9]; 24 h p.i.): 1.88 ± 0.04
uptake in tumors and kidneys when co-injected with excess ZJ-43 ([9]; ZJ-43 50 μg, p < 0.001): significantly decreased
